Laboratory results taken from article PMC12655172, “Borylated 5-Membered Ring Iminosugars: Synthesis and Biological Evaluation for Glycosidase Inhibition and Anticancer Properties for Application in Boron Neutron Capture Therapy (BNCT)—Part 2” (Pharmaceuticals, 2025).
Entries after “also recorded” stand apart in the source; their conditions may differ.

Assays:
Type in all cases: biochemical
[1] = tested on: T1, trehalase (porcine kidney); test: Glycosidase inhibition (Table 2 panel)
T1 construct: purchased Sigma-Aldrich; host or cells: porcine kidney

[2] = tested on: α-D-glucosidase (rat intestinal maltase); test: Glycosidase inhibition (Table 2 panel)
[3] = tested on: T2, α-D-mannosidase (Jack bean); test: Glycosidase inhibition (Table 2 panel)
T2 construct: purchased Sigma-Aldrich; host or cells: Jack bean
Procedure, shortened: (§1)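 Absorbance at 400 nm quantified para-nitrophenol liberated from […] para-nitrophenyl glycoside substrate, at the optimal pH for each enzyme […]. Na2CO3 […] terminated the reactions.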

[4] = tested on: T3, α-L-fucosidase (bovine kidney); test: Glycosidase inhibition (Table 2 panel)
T3 construct: purchased Sigma-Aldrich; host or cells: bovine kidney
Procedure, shortened: as §1

[5] = tested on: α-L-rhamnosidase (P. decumbens); test: Glycosidase inhibition (Table 2 panel)
Procedure, shortened: as §1

[6] = target: T4, β-D-galactosidase (bovine liver) (Bos taurus, UniProt F1MNT6); test: Glycosidase inhibition (Table 2 panel)
T4 sequence (F1MNT6 1-469): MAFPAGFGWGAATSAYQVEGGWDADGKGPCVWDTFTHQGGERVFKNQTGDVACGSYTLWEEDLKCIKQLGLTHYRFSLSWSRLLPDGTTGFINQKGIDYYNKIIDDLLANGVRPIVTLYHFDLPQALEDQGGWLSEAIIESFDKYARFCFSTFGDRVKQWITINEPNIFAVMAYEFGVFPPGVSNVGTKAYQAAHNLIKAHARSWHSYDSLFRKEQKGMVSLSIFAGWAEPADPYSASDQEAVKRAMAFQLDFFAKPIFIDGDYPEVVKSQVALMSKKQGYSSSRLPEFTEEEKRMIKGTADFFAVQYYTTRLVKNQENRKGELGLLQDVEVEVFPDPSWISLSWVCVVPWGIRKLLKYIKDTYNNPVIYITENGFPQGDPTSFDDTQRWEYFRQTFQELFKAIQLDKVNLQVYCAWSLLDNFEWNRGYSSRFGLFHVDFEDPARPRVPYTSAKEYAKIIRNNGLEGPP
Procedure, shortened: as §1

[7] = tested on: β-D-glucosidase (almond); test: Glycosidase inhibition (Table 2 panel)
Procedure, shortened: as §1

[8] = target: T5, β-D-glucosidase (bovine liver) (Bos taurus, UniProt F1MNT6); test: Glycosidase inhibition (Table 2 panel)
T5 sequence (F1MNT6 1-469): T4 sequence (F1MNT6 1-469)
Procedure, shortened: as §1

[9] = tested on: T6, amyloglucosidase (A. niger); test: Glycosidase inhibition (Table 2 panel)
T6 construct: purchased Sigma-Aldrich
Procedure, shortened: (§2)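 Each enzyme was run with the matching para-nitrophenyl glycoside […] at its optimum pH, […]. Reactions were stopped with Na2CO3 […], and released para-nitrophenol was read at 400 nm.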

[10] = tested on: T7, β-D-glucuronidase (E. coli); test: Glycosidase inhibition (Table 2 panel)
T7 construct: purchased Sigma-Aldrich
Procedure, shortened: as §2

[11] = tested on: T2, α-D-mannosidase (Jack bean); test: Glycosidase inhibition (Table 3 panel); conditions: 1 mg/mL aqueous solution; run in water
Procedure, shortened: (§3)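 Enzymes tested at 27 °C in citric acid/disodium hydrogen phosphate buffer at each enzyme's optimum pH, with 1 mg/mL aqueous extract and […] para-nitrophenyl substrate. Reactions stopped with 0.4 M glycine (pH 10.4) within the exponential phase; absorbance read at 405 nm, triplicate means.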

[12] = target: α-D-glucosidase (rice) (Oryza sativa subsp. japonica, UniProt Q653V7); test: Glycosidase inhibition (Table 2 panel)
[13] = target: T8, α-D-glucosidase (yeast) (Saccharomyces cerevisiae, UniProt P53341); test: Glycosidase inhibition (Table 2 panel)
T8 construct: purchased Sigma-Aldrich
Procedure, shortened: as §2

[14] = tested on: α-D-glucosidase (human lysosome); test: Glycosidase inhibition (Table 2 panel); conditions: at 100 μM
[15] = tested on: β-D-glucosidase (human lysosome); test: Glycosidase inhibition (Table 2 panel); conditions: at 100 μM
[16] = tested on: β-D-galactosidase (E. coli); test: Glycosidase inhibition (Table 2 panel); conditions: at 100 μM
[17] = tested on: β-D-glucanase (T. Longibrachiatum); test: Glycosidase inhibition (Table 2 panel); conditions: at 100 μM
[18] = tested on: N-acetyl-β-D-hexosaminidase (rat intestine); test: Glycosidase inhibition (Table 3 panel); conditions: 1 mg/mL aqueous solution; run in water
Procedure, shortened: as §3

[19] = tested on: α-D-glucosidase (rat intestine); test: Glycosidase inhibition (Table 3 panel); conditions: 1 mg/mL aqueous solution; run in water
Procedure, shortened: as §3

[20] = tested on: glycosidases in the panel; test: Glycosidase inhibition, whole Table 2 panel
Text: The enzymes α-D-glucosidase (yeast), β-D-glucosidases (almond, bovine liver), α-D-galactosidase (coffee beans), β-D-galactosidase (bovine liver), α-D-mannosidase (Jack bean), β-D-mannosidase (snail), α-L-rhamnosidase (P. decumbens), α-L-fucosidase (bovine kidney), trehalase (porcine kidney), β-D-glucuronidases (E. coli, bovine liver), amyloglucosidase (A. niger), para-nitrophenyl glycosides, and various disaccharides were purchased from Sigma-Aldrich Co (St. Louis, MO, USA).
Brush border membranes were prepared from the rat small intestine according to the method of Kessler et al., and were assayed at pH 6.8 for rat intestinal maltase using maltose. For rat intestinal maltase, porcine kidney trehalase, and A. niger amyloglucosidase activities, the reaction mixture contained maltose ([…]) and the appropriate amount of enzyme, and the incubations were performed for 10–30 min at 37 °C. The reaction was stopped by heating at 100 °C for 3 min. After centrifugation (600 g; 10 min), the resulting reaction mixture was added to the Glucose CII-test Wako (Wako Pure Chemical Ind., Osaka, Japan). The absorbance at 505 nm was measured to determine the amount of the released D-glucose. Other glycosidase activities were determined using an appropriate para-nitrophenyl glycoside as substrate at the optimum pH of each enzyme. The reaction mixture contained the substrate ([…]) and the appropriate amount of enzyme. The reaction was stopped by the addition of Na2CO3 ([…]). The released para-nitrophenol was measured spectrometrically at 400 nm. All reactions were run in […].

T8 sequence (P53341 whole entry): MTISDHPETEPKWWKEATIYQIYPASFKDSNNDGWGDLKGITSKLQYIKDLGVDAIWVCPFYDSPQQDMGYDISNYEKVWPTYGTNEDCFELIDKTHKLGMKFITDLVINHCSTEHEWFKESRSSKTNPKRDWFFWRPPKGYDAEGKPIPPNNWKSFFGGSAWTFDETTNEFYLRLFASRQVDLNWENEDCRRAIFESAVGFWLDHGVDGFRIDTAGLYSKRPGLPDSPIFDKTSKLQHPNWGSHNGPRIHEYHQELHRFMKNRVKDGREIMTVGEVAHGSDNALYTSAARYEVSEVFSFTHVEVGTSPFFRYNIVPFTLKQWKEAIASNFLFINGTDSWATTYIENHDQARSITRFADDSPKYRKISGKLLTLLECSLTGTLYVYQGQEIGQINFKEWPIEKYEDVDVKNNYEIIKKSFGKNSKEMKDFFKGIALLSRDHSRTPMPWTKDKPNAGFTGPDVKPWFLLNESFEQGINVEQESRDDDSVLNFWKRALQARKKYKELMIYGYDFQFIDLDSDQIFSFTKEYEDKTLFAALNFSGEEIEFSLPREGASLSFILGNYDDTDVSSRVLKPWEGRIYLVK
α-D-glucosidase (rice), sequence (Q653V7 34-885): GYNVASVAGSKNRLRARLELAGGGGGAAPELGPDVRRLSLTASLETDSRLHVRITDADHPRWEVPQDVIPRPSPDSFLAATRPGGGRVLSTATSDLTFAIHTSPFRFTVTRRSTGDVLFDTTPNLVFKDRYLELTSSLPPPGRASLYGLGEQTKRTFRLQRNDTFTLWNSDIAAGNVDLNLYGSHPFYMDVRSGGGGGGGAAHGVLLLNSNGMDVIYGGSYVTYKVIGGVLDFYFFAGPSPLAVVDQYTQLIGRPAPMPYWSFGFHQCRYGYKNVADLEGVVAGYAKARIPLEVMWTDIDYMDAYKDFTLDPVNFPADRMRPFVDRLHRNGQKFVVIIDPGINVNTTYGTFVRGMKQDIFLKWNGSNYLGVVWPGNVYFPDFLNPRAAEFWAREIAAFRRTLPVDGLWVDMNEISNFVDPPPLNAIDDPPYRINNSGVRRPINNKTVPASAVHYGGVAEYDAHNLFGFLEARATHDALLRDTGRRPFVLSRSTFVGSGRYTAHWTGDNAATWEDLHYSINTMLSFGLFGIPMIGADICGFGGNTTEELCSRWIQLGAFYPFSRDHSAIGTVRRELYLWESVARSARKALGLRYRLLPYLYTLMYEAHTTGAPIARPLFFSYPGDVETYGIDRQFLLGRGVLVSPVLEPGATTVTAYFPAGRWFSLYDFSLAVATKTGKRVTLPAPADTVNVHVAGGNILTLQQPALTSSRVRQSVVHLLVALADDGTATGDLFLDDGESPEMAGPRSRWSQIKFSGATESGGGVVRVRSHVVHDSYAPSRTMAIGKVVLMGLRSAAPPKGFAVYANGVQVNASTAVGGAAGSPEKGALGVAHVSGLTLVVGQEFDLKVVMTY

| Compound | inhibition % Trehalase Porcine Kidney ([1]; at 100 μM) | inhibition % α-D-Glucosidase Rat Intestinal Maltase ([2]; at 100 μM) | inhibition % α-D-Mannosidase Jack Bean ([3]; at 100 μM) | inhibition % α-L-Fucosidase Bovine Kidney ([4]; at 100 μM) | inhibition % α-L-Rhamnosidase P. decumbens ([5]; at 100 μM) | inhibition % β-D-Glucosidase Almond ([7]; at 100 μM) | inhibition % Amyloglucosidase A. niger ([9]; at 100 μM) | inhibition % β-D-Glucuronidase E. coli ([10]; at 100 μM) | Percentage inhibition α-D-Mannosidase Jack Bean [11] | inhibition % α-D-Glucosidase Rice ([12]; at 100 μM) | inhibition % β-D-Galactosidase Bovine Liver ([6]; at 100 μM) | inhibition % β-D-Glucosidase Bovine Liver ([8]; at 100 μM) | inhibition % α-D-Glucosidase Yeast ([13]; at 100 μM) | inhibition % Trehalase Porcine Kidney ([1]; at 1000 μM) | inhibition % α-D-Glucosidase Rat Intestinal Maltase ([2]; at 1000 μM) | inhibition % α-D-Glucosidase Rice ([12]; at 1000 μM) | inhibition % α-D-Mannosidase Jack Bean ([3]; at 1000 μM) | inhibition % α-L-Fucosidase Bovine Kidney ([4]; at 1000 μM) | inhibition % α-L-Rhamnosidase P. decumbens ([5]; at 1000 μM) | inhibition % β-D-Galactosidase Bovine Liver ([6]; at 1000 μM) | other results |
| --- | --- | --- | --- | --- | --- | --- | --- | --- | --- | --- | --- | --- | --- | --- | --- | --- | --- | --- | --- | --- | --- |
| N[C@@H](Cc1ccc(B(O)O)cc1)C(=O)O [BPA, 4-borono-L-phenylalanine, reference compound] | ^cNI ^d(0%) | ^cNI ^d(0%) | ^cNI ^d(1.1%) | ^cNI ^d(0%) | ^cNI ^d(0%) | ^cNI ^d(0%) | ^cNI ^d(0%) | ^cNI ^d(0.5%) | 0.6% |  |  |  |  |  |  |  |  |  |  |  | inhibition at 100 µM ([6]; at 100 μM): 10.9%; inhibition at 100 µM ([8]; at 100 μM): 0% |
| N[C@@H](Cc1ccc(B(O)O)cc1)C(=O)O [^10B-BPA, reference compound] | ^cNI ^d(0%) | ^cNI ^d(0%) | ^cNI ^d(0%) | ^cNI ^d(0%) | ^cNI ^d(0%) | ^cNI ^d(0%) | ^cNI ^d(0%) | ^cNI ^d(2.4%) | −0.7% | ^cNI ^d(0%) | ^cNI ^d(0%) | ^cNI ^d(14.2%) | ^cNI ^d(0%) |  |  |  |  |  |  |  |  |
| Borocaptate sodium [BSH, reference compound] |  |  |  |  |  |  |  |  | −18.7% |  |  |  |  | ^aNI ^b(4.2%) | ^aNI ^b(0%) | ^aNI ^b(0%) | ^aNI ^b(7.9%) | ^aNI ^b(0%) | ^aNI ^b(0.2%) | ^aNI ^b(0%) | inhibition % β-D-Glucosidase Almond ([7]; at 1000 μM): ^aNI ^b(0%); inhibition % β-D-Glucosidase Bovine Liver ([8]; at 1000 μM): ^aNI ^b(15%); inhibition % Amyloglucosidase A. niger ([9]; at 1000 μM): ^aNI ^b(0%); inhibition % α-D-Glucosidase Yeast ([13]; at 1000 μM): ^aNI ^b(6.9%); inhibition % β-D-Glucuronidase E. coli ([10]; at 1000 μM): ^aNI ^b(6%) |
| N-(3-Hydroxyphenyl)-1,4-dideoxy-1,4-imino-L-gulitol [meta 7] | ^cNI ^d(0%) | ^cNI ^d(0%) | ^cNI ^d(0%) |  | ^cNI ^d(3.8%) | ^cNI ^d(0%) | ^cNI ^d(5.1%) | ^cNI ^d(0.5%) |  | ^cNI ^d(0%) | ^cNI ^d(17.5%) | ^cNI ^d(0%) | ^cNI ^d(3.4%) | ^aNI ^b(1.9%) | ^aNI ^b(7.2%) | ^aNI ^b(5.0%) | ^aNI ^b(0%) | ^aNI ^b(2.1%) | ^aNI ^b(2.1%) | ^aNI ^b(8.1%) | inhibition % α-D-Glucosidase Human Lysosome [14]: ^cNI ^d(0%); inhibition % β-D-Glucosidase Almond ([7]; at 1000 μM): ^aNI ^b(9.6%); inhibition % β-D-Glucosidase Bovine Liver ([8]; at 1000 μM): ^aNI ^b(13.6%); inhibition % Amyloglucosidase A. niger ([9]; at 1000 μM): ^aNI ^b(2.1%); inhibition % α-D-Glucosidase Yeast ([13]; at 1000 μM): ^aNI ^b(4.3%); inhibition % β-D-Glucuronidase E. coli ([10]; at 1000 μM): ^aNI ^b(7.5%); inhibition % β-D-Glucosidase Human Lysosome [15]: ^cNI ^d(9.9%); inhibition % β-D-Galactosidase E. coli [16]: ^cNI ^d(0%); inhibition % β-D-Glucanase T. Longibrachiatum [17]: ^cNI ^d(0%); Percentage inhibition N-Acetyl-β-D-Hexosaminidase Rat Intestine [18]: −2.5%; Percentage inhibition α-D-Glucosidase Rat Intestine [19]: −10.7%; Inhibitory activity over the glycosidase panel, in words [20]: complete abrogation of inhibition; also recorded: abrogation of biological activity |
